Experiments:
[1] = system: NAMECs; experiment: Western blot of exosome markers and proteins in CM-P4 fractions of NAMECs; type: cell-based, human; conditions: AH23848 0.4, 2, 4 μg/ml; AH6809 0.8, 4, 8 μg/ml; GW 1 μg/ml
Source text: FIG. 2 includes graphs and blots showing analyses of GW-treated NAMEC P4 fractions. CM-P4 GW-treated NAMECs were collected and subjected to (A) NanoSight Nanoparticle Tracking Analysis (NTA) and (B) Dynamic Light Scattering/Zeta Potential Analysis (DLS). […] D: particle diameter. RN: relative number. (C) is a blot showing the amounts of the CD44 stem cell marker and the CD81, CD9, TSG101, Alix, HSP70 and GAPDH exosome markers measured in the indicated CM-P4 fractions and cell lysates. The culture media and cell lysates were collected from the same number of NAMECs treated with vehicle (Crl), GW627368X (GW) or PGE2 (1 μM) for 4 days. (D) is a blot showing the amounts of the GAPDH and CD81 exosome markers and the CD44 stem cell marker measured in the CM-P4 fraction of NAMECs (CD44hi/CD24− stem cells) or CD44lo/CD24+ non-stem cells (HMLE cells) treated with vehicle (Crl) or GW for 2 days. 1×: P4 exosome fraction released by 1×10^6 cells; 2×: P4 exosome fraction released by 2×10^6 cells. […] (E) is a blot showing that the CD44 stem cell marker and GAPDH and CD81 exosome markers were measured in the indicated P4 conditioned medium fractions of NAMECs treated with vehicle (Crl), GW627368X (GW, 1 μg/ml), AH23848 (EP4 antagonist; 0.4, 2, 4 μg/ml), or AH6809 (EP1/2/3 antagonist; 0.8, 4, 8 μg/ml). (F) is a blot showing the HSP70, GAPDH and CD81 exosome markers measured in the indicated CM-P4 of NAMECs, NAMEC-shEP4-1 cells, and NAMEC-shEP4-2 cells treated with vehicle or with doxycycline (Dox, 2 μg/ml) (top panel). Doxyclycline (Dox) induced the production EP4 shRNA in NAMEC-shEP4 cells (bottom panel).
The P4 exosome fractions and cell lysates were collected from NAMECs treated with vehicle (Crl), GW627368X (GW), or PGE2 for 4 days. 1×: P4 exosome fraction released by 2.5×10^5 cells; 5×: P4 exosome fraction released by 12.5×10^5 cells. Hg: Hg-integrin β1, Lg: Lg-integrin β1, H: H-integrin α6, L: L-integrin α6, pg: pg-LRP6, g: g-LRP6, Ng: Ng-LRP6.
(§1) The isolated human mammary epithelial stem cells (NAMECs) were cultured in mammary epithelial cell basal medium (250 ml MCDB-170, 250 ml DMEM-F12, 1.2 g sodium bicarbonate, 2.5 μg EGF, 0.25 mg Hydrocortisone, 2.5 mg insulin, 35 mg BPE) with or without containing EP4 antagonist, i.e., GW627368X (GW) at 1 μg/ml, or AH23848 (AH) at 4 μg/ml, for 4 days. The culture medium was supplied with 0.5 μg/ml of GW or 2 μg/ml of AH23848 at the third day of the culturing period. For the induction of EP4 antagonist-induced exosomes from mouse mammary epithelial cells, cells were cultured in a medium containing 10 μg/ml of GW for 4 days.
The culture media were centrifuged at 300 g for 5 min to remove cells (P1), at 2,000 g for 20 min (P2), then at 10,000 g for 30 min (P3) all at 4° C. Dead cells and cell debris were removed at 300 g (P1) and 1200 g (P2). […]

[2] = system: NAMECs; experiment: NanoSight Nanoparticle Tracking Analysis of CM-P4 fractions of NAMEC culture; type: cell-based, human; conditions: CM-P4 fraction, 4 days; PGE2 1 μM
Source text: FIG. 1 includes a TEM image and a graph. (A) is a TEM image of the P4 medium fraction of NAMECs treated with GW627368X (GW) for 4 days. Scale bar, 1 μm. (B) is a graph showing the number of particles in the CM-P4 fractions of NAMEC culture counted by using NanoSight Nanoparticle Tracking analysis. Top panel: Quantification of exosome release is shown as the ratio of [P4 GAPDH marker level]/[cell number]. Data are means±SEM (n=3). *P≤0.05. **P≤0.005. Bottom table: Quantification of exosome release is shown as the number of particles of the CM-P4 fractions released per cell measured by nanoparticle tracking analysis.
as §1
The culture media were centrifuged at 300 g for 5 min to remove cells (P1), at 2,000 g for 20 min (P2), then at 10,000 g for 30 min (P3) all at 4° C. Dead cells and cell debris were removed at 300 g (P1) and 1200 g (P2). Finally, exosomes (P4) were separated from the supernatant by centrifugation at 110,000 g for 60 min. The P4 exosome pellet was washed once in PBS and then re-suspended in PBS for further application.

[3] = system: NAMEC-R cells; experiment: NTA of EV release from Ras-transformed NAMEC-R cells; type: cell-based; conditions: CM-P4, 4 days; GW 1 μg/ml; SQ 120 and 240 nM
Method: Vesicles in the P4 fractions were counted using NTA. Data are means±SEM (n=6). ***P≤0.001; (B) The Alix, TSG101, CD63, CD81 and GAPDH exosome markers were measured in the CM-P4 fractions of NAMEC-R cells treated with vehicle (Crl), GW627368X (GW, 1 μg/ml), SQ 29,548 (SQ120/SQ240; 120 nM and 240 nM); (C) The mesenchymal marker N-cadherin, CSC markers and exosome markers were analyzed in the conditioned medium P4 fraction derived from equal numbers of vehicle-treated NAMEC-R cells (Crl), GW-treated NAMEC-R cells (GW, 1 μg/ml GW627368X for 4 days) and SQ 29,548-treated NAMEC-R cells (SQ120/SQ240; 120 nM and 240 nM for 4 days). The longer GAPDH(L) and CD81(L) exposures show the low, but detectable, presence of GAPDH and CD81 in the conditioned medium P4 fraction of vehicle-treated NAMEC-R cells.
We further investigated whether EP4 antagonism and TP receptor antagonism (as GW has partial affinity to the human TP receptor) affected EV release from transformed mammary epithelial stem cells. Four-day conditioned media of vehicle, GW-, or SQ (a TP antagonist)-treated Ras-transformed NAMEC mammary stem cells (NAMEC-R) were collected and subjected to differential ultracentrifugation to isolate EVs released by the cells. The numbers of vesicles in CM-P4 fractions were determined using NTA (FIG. 20, A). EP4 antagonism elicited release of ˜5000 vesicles per NAMEC-R cell. […]

| SMILES | exosome release by exosome markers in CM-P4 fractions [1] | further results |
| --- | --- | --- |
| CC(C)Oc1ccc2c(=O)c3cc(C(=O)O)ccc3oc2c1 [AH6809] | not significantly induced | – |
| O=C(O)CC/C=C\CC[C@H]1[C@H](N2CCOCC2)C(=O)C[C@H]1OCc1ccc(-c2ccccc2)cc1 [AH23848] | induced in a dose-dependent manner | – |
| CCCCC[C@H](O)/C=C/[C@H]1[C@H](O)CC(=O)[C@@H]1C/C=C\CCCC(=O)O [PGE2, prostaglandin E2] | – | concentration of released membrane vesicles [2]: ~0.5×10^4 particle/cell |
| O=C(O)CCC/C=C\C[C@@H]1[C@H](CNNC(=O)Nc2ccccc2)[C@H]2CC[C@@H]1O2 [SQ 29,548] | – | vesicles released per cell [3]: ~1000 vesicles per cell |

Source: patent publication US11149277B2, “Method of producing enriched exosomes” (National Health Research Institutes, priority 2016, dated 2021)
